From ChEMBL document CHEMBL4396868, “Discovery of Potent, Selective, and Brain-Penetrant 1 H-Pyrazol-5-yl-1 H-pyrrolo[2,3- b]pyridines as Anaplastic Lymphoma Kinase (ALK) Inhibitors” (J Med Chem, 2019)
pIC50: −log10 of the molar value.

Key:
[1] = target: T1, ALK tyrosine kinase receptor (Homo sapiens, UniProt Q9UM73); assay type: cell-based, HEK293
Description: Inhibition of recombinant human ALK expressed in HEK293 cells assessed as reduction in ALK autophosphorylation at Tyr1604 residue incubated for 60 mins by sandwich ELISA

Homo sapiens = organism: Homo sapiens; assay: Selectivity ratio of IC50 for N-terminal GST-tagged human TrkA kinase domain (436 to 790 residues) expressed in baculovirus expression system to IC50 for human ALK kinase domain (1058 to 1620 residues) expressed in baculovirus expression system
[2] = target: High affinity nerve growth factor receptor (Homo sapiens, UniProt P04629); assay: Inhibition of N-terminal GST-tagged human TrkA kinase domain (436 to 790 residues) expressed in baculovirus expression system using biotin-poly-GT as substrate pre-incubated for 5 mins followed by ATP addition and measured after 60 mins by alpha screen assay
Sequence of High affinity nerve growth factor receptor (P04629 whole entry, the tested form may be a part): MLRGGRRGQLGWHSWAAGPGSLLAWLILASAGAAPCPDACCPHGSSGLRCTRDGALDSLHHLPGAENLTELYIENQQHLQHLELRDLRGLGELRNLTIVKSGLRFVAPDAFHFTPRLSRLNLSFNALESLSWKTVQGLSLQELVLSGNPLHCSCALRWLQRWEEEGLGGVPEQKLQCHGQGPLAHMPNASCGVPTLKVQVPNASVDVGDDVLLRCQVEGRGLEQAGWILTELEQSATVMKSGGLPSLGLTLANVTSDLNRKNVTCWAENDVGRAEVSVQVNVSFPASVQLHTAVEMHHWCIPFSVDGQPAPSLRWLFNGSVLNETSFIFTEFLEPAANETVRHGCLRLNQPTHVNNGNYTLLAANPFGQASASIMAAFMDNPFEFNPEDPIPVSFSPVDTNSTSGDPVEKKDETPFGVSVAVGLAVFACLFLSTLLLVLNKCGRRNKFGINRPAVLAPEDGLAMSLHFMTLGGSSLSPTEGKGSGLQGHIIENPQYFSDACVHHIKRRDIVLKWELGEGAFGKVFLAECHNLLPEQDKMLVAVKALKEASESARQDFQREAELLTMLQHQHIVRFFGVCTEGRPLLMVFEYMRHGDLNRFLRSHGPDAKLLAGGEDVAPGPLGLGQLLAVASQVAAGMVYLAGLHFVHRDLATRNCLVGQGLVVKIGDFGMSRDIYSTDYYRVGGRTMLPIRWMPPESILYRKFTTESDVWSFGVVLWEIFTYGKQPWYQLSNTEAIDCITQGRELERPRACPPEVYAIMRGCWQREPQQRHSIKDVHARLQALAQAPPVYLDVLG

[3] = target: T1, ALK tyrosine kinase receptor
Description: Inhibition of human ALK kinase domain (1058 to 1620 residues) expressed in baculovirus expression system using biotin-poly-GT as substrate pre-incubated for 10 mins followed by ATP addition and measured after 60 mins by HTRF method

MDR1 (ABCB1, P-gp) = MDR1 (ABCB1, P-gp) (Homo sapiens, UniProt P08183); assay: Substrate activity at human MDR1 expressed in pig LLC-PK1 cells assessed as efflux ratio of apparent permeability across basolateral to apical over apical to basolateral side at 10 uM after 2 hrs by LC/MS/MS analysis; assay type: ADME, cell-based
Sequence of MDR1 (ABCB1, P-gp) (P08183 whole entry): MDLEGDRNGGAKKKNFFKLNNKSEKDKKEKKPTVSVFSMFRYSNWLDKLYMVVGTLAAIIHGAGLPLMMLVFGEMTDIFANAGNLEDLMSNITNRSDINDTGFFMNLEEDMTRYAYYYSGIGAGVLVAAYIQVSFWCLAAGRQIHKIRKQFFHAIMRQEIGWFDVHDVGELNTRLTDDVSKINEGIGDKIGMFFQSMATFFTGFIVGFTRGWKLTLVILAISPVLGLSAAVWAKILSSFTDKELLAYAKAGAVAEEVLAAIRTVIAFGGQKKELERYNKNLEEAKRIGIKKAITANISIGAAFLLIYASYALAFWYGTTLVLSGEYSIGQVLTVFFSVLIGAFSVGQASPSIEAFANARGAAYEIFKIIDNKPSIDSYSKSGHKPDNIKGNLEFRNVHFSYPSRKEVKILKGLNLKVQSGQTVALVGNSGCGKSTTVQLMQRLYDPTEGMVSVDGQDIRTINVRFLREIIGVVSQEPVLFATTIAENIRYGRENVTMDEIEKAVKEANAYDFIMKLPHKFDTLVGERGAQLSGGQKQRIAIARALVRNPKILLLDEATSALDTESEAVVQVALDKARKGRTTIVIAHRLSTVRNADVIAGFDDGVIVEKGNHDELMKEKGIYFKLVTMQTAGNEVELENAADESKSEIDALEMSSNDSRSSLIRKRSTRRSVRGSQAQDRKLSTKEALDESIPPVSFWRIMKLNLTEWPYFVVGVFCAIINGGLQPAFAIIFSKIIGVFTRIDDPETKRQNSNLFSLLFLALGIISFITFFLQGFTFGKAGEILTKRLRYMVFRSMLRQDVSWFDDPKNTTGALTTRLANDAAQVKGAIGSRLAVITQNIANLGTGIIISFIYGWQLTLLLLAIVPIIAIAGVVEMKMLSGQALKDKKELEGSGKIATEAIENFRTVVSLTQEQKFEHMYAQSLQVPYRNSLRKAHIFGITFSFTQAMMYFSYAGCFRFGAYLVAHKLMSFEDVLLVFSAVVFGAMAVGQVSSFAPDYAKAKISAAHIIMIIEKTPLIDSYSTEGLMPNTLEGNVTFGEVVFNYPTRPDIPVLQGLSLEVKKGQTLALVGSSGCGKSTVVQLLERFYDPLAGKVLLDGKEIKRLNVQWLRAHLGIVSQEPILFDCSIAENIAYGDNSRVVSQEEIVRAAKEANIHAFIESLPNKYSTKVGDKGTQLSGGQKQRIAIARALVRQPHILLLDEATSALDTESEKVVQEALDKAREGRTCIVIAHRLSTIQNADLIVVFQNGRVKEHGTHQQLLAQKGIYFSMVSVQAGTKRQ

T1 sequence (Q9UM73 whole entry, the tested form may be a part): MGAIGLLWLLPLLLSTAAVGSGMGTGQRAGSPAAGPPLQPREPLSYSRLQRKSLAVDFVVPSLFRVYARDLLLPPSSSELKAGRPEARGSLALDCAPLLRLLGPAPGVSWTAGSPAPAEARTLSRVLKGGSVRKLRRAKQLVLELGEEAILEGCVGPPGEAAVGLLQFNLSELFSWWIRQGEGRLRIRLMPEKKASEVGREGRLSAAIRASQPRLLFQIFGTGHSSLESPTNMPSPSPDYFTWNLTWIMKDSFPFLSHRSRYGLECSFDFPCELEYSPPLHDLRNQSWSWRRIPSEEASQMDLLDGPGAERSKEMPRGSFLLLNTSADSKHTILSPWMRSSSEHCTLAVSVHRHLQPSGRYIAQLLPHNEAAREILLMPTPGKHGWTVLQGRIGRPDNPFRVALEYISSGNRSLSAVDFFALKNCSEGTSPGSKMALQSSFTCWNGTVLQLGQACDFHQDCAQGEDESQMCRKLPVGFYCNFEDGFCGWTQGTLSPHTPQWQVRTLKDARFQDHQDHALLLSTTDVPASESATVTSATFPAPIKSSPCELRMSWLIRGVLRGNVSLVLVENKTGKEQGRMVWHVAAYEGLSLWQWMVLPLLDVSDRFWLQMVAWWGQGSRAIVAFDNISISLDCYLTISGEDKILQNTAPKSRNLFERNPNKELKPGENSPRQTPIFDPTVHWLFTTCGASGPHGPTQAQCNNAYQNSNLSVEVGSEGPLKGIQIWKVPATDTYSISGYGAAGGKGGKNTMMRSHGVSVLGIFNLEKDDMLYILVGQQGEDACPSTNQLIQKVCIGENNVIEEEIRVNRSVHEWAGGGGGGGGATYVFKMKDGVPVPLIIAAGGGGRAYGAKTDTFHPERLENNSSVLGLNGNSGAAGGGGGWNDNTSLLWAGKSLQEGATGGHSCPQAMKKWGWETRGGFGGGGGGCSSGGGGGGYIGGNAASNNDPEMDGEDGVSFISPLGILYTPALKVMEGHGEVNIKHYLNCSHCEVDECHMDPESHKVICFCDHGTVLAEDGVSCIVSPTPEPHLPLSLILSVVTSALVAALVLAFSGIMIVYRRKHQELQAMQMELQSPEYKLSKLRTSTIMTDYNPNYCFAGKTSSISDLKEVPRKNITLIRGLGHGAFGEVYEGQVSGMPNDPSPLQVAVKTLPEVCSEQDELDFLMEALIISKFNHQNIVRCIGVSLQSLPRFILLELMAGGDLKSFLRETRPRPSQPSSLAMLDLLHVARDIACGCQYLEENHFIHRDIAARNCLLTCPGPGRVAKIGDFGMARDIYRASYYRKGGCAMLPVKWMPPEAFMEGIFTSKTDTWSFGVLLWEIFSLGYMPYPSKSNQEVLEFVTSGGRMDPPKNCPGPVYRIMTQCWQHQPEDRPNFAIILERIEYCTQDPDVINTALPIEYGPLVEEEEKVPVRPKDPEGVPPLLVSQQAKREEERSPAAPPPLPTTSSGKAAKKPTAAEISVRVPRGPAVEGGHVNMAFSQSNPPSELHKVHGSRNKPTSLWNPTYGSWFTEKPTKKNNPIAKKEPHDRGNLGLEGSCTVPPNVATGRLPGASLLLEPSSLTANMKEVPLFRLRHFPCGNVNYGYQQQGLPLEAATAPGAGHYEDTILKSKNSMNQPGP

Cc1cc(-n2cc(C(=O)N(C)C)c3ccc(N[C@@H](C)c4ccc(F)cn4)nc32)[nH]n1
pIC50 [1]: 7.80
Ratio IC50 (Homo sapiens): 67
pIC50 [2]: 6.92
pIC50 [3]: 8.74

COCc1cn(-c2cc(C)n[nH]2)c2nc(OC(C)c3ccc(F)cn3)ccc12 (racemic; 16)
pIC50 [2]: 5.82
pIC50 [3]: 5.55

Cc1cc(-n2cc(C(=O)N3CCN(C)CC3)c3ccc(N[C@@H](C)c4ccc(F)cn4)nc32)[nH]n1
pIC50 [1]: 7.43
pIC50 [2]: 6.60
pIC50 [3]: 8.21

Cc1cc(-c2cnc3ccc(N[C@@H](C)c4ccc(F)cc4F)nn23)[nH]n1
pIC50 [1]: 8.22
pIC50 [2]: 10.00
pIC50 [3]: 8.70

CCS(=O)(=O)c1cn(-c2cc(C)[nH]n2)c2nc(N[C@@H](C)c3ccc(F)cn3)ccc12
pIC50 [1]: 7.43
pIC50 [2]: 6.96
pIC50 [3]: 8.02

Cc1cc(-n2cc(C(=O)N3CCO[C@H](C)C3)c3ccc(O[C@H](C)c4ccc(F)cn4)nc32)[nH]n1 (relative stereo)
pIC50 [1]: 7.38
pIC50 [2]: 5.47
pIC50 [3]: 8.34
efflux ratio at 2 h, 10 µM (MDR1 (ABCB1, P-gp)): 1.3

COCc1cn(-c2cc(C)n[nH]2)c2nc(OC(C)c3ccc(F)cn3)ccc12 (racemic; 15)
pIC50 [2]: > 8.00
pIC50 [3]: 8.49

Cc1cc(-n2cc(C(=O)N3CCOCC3)c3ccc(OC(C)c4ccc(F)cn4)nc32)[nH]n1 (racemic)
pIC50 [1]: 7.16
pIC50 [2]: 5.85
pIC50 [3]: 8.21
efflux ratio at 2 h, 10 µM (MDR1 (ABCB1, P-gp)): 3.1

Cc1cc(-n2cc(C(=O)N3CCOCC3)c3ccc(N[C@@H](C)c4ccc(F)cn4)nc32)[nH]n1
pIC50 [1]: 7.64
Ratio IC50 (Homo sapiens): 480
pIC50 [2]: 5.92
pIC50 [3]: 8.60
efflux ratio at 2 h, 10 µM (MDR1 (ABCB1, P-gp)): 18

Cc1cc(-n2cc(S(=O)(=O)C(C)C)c3ccc(N[C@@H](C)c4ccc(F)cn4)nc32)n[nH]1
pIC50 [1]: 6.57
Ratio IC50 (Homo sapiens): 94
pIC50 [2]: 5.77
pIC50 [3]: 7.74

Cc1cc(-n2cc(S(C)(=O)=O)c3ccc(N[C@@H](C)c4ccc(F)cc4F)nc32)n[nH]1
pIC50 [1]: 7.57
pIC50 [2]: 7.82
pIC50 [3]: 8.92

Cc1cc(-n2cc(S(C)(=O)=O)c3ccc(N[C@@H](C)c4ccc(F)cn4)nc32)n[nH]1
pIC50 [1]: 7.89
pIC50 [2]: 7.35
pIC50 [3]: 8.48

Cc1cc(-n2cc(S(=O)(=O)C3COC3)c3ccc(N[C@@H](C)c4ccc(F)cn4)nc32)n[nH]1
pIC50 [1]: 7.22
pIC50 [2]: 6.14
pIC50 [3]: 7.70

Cc1cc(-c2cnc3ccc(N[C@H](C)c4ccc(F)cc4F)nn23)[nH]n1
pIC50 [3]: 6.00

Cc1cc(-n2cc(C3=CCOCC3)c3ccc(N[C@@H](C)c4ccc(F)cn4)nc32)[nH]n1
pIC50 [1]: 8.03
pIC50 [2]: 8.57
pIC50 [3]: 8.72

Cc1cc(-n2ccc3ccc(N[C@@H](C)c4ccc(F)cc4F)nc32)[nH]n1
pIC50 [1]: 6.85
pIC50 [2]: > 8.00
pIC50 [3]: 7.85
